Results taken from patent US10975056B2 (GlaxoSmithKline Intellectual Property Development Limited, priority 2016, dated 2021).
Where “and” joins values, the source holds several entries; their conditions need not be identical. Equal entries are not always repeated. Structures can show the parent of a compound that is named as a salt. Where two headings read alike, the source gives them in different places.

Tests used:
DNMT1 = DNMT1 (Homo sapiens, UniProt P26358); assay: DNMT1 biochemical activity, breaklight assay and/or SPA assay
DNMT1, sequence (P26358 whole entry, looked up): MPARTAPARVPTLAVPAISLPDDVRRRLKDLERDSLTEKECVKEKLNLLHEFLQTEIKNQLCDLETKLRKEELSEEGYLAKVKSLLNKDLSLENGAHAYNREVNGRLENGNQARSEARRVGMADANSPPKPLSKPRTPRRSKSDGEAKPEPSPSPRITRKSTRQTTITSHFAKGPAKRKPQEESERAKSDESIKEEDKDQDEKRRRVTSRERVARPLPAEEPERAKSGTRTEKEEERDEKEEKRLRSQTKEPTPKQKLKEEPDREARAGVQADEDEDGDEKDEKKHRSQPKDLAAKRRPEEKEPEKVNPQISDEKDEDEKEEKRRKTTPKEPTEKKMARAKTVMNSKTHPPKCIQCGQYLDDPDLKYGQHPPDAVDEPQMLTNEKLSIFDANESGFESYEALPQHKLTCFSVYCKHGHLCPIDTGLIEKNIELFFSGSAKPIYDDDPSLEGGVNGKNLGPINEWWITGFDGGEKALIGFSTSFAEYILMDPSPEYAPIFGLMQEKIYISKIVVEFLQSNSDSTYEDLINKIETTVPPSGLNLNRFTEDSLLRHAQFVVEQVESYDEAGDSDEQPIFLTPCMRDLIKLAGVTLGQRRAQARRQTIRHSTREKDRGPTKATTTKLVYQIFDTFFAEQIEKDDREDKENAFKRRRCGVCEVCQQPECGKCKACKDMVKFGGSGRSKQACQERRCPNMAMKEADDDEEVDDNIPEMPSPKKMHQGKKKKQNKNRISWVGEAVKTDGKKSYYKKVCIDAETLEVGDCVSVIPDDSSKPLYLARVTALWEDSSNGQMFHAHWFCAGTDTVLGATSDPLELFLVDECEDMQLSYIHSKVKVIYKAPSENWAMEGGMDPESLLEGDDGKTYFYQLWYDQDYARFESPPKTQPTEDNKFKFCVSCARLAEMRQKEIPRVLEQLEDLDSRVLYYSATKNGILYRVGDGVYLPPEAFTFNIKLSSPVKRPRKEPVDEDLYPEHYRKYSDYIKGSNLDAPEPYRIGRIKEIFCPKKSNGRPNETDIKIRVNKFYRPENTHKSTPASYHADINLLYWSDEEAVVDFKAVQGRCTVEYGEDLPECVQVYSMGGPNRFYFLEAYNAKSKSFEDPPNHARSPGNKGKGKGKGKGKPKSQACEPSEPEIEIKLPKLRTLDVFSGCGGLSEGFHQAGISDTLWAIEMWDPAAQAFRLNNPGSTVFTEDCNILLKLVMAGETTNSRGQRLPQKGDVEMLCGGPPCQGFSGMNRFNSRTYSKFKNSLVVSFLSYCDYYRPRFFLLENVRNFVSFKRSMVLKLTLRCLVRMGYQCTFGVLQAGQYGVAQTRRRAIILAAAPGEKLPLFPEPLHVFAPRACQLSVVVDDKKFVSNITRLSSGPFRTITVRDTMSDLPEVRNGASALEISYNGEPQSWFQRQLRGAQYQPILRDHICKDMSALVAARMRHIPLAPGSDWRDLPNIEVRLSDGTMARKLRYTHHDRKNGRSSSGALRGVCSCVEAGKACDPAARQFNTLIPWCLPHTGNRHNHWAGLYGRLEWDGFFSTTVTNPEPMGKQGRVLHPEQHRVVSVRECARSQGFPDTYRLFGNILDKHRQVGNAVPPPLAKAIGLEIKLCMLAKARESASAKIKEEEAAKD

[1] = system: erythroid progenitor cells (EPCs); assay: Fetal hemoglobin (HbF) ELISA in day 7 erythroid progenitor cells; type: cell-based, human; details: Homo sapiens, Erythroid progenitor cell, HbF ELISA, day 7 EPCs, 5 days; read-out: EPC ELISA (pEC50 category) (converted);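 note: for fetal hemoglobin induction normalized to vehicle-treated cells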
Method in brief: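 HbF induction was read by anti-HbF sandwich ELISA (HRP/TMB, OD450) on lysates and normalized to vehicle-treated cells. Cells were day 7 erythroid progenitors derived from human bone marrow CD34+ cells, seeded at 1,000/well with 3 U/mL rhEPO. Compound was given for 5 days at 37 °C at final concentrations […].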

[2] = binned activity in either the breaklight or the SPA assay
[3] = binned activity in either the breaklight or the SPA assay, read-out: DNMT1 BioChemical (pIC50 category) (converted)
[4] = breaklight assay and/or SPA assay, repeated experimental runs, read-out: average pIC50 against DNMT1 (converted)

Row | SMILES | DNMT1 BioChemical (pIC50 category) (DNMT1; [2]) | EC50 [1] | IC50 (DNMT1; [3]) | IC50 (DNMT1; [4])
1 | CCc1c(C#N)c(SC(C(N)=O)c2ccc(F)cc2)nc(N2CC[C@@H](N(C)C)C2)c1C#N (stereo partly drawn) [Example 530, 2-((3,5-dicyano-6-((R)-3-(dimethylamino)pyrrolidin-1-yl)-4-ethylpyridin-2-yl)thio)-2-(4-fluorophenyl)acetamide] | D (Category D: ≥6.5) | 1000 to 31600 nM |  | 
2 | CCc1c(C#N)c(SC(C(N)=O)c2ccccc2)nc(N(C)CC(=O)N2C[C@H](O)[C@@H](O)C2)c1C#N (stereo partly drawn) [Example 660, 2-((3,5-dicyano-6-((2-((3S,4S)-3,4-dihydroxypyrrolidin-1-yl)-2-oxoethyl)(methyl)amino)-4-ethylpyridin-2-yl)thio)-2-phenylacetamide] | D (Category D: ≥6.5) | 1000 to 31600 nM |  | 
3 | CCc1c(C#N)c(SC(C(N)=O)c2ccccc2)nc(N2CCC(N(C)C)CC2)c1C#N (centres unmarked) [Example 548, 2-((3,5-dicyano-6-(4-(dimethylamino)piperidin-1-yl)-4-ethylpyridin-2-yl)thio)-2-phenylacetamide] | D (Category D: ≥6.5) | < 316 nM |  | 
4 | CCc1c(C#N)c(SC(C(N)=O)c2ccccc2)nc(N2CCC(N3CCC[C@H]3CO)CC2)c1C#N (stereo partly drawn) [Example 441, 2-((3,5-dicyano-4-ethyl-6-(4-((S)-2-(hydroxymethyl)pyrrolidin-1-yl)piperidin-1-yl)pyridin-2-yl)thio)-2-phenylacetamide] | D (Category D: ≥6.5) | < 316 nM |  | 
5 | CCc1c(C#N)c(SC(C(N)=O)c2ncccc2F)nc(N2CCC(N)CC2)c1C#N (centres unmarked) [Example 583, 2-((6-(4-aminopiperidin-1-yl)-3,5-dicyano-4-ethylpyridin-2-yl)thio)-2-(3-fluoropyridin-2-yl)acetamide] | D (Category D: ≥6.5) | < 316 nM |  | 
6 | CCc1c(C#N)c(S[C@@H](C(N)=O)c2ccccc2)nc(N2CCC(N3CCCC3)CC2)c1C#N [Example 405, (R)-2-((3,5-Dicyano-4-ethyl-6-(4-(pyrrolidin-1-yl)piperidin-1-yl)pyridin-2-yl)thio)-2-phenylacetamide] | D (Category D: ≥6.5) | < 316 nM |  | 
7 | CCc1c(C#N)c(SCc2ccc(N(C)S(C)(=O)=O)cc2)nc(N2CCCN(C)CC2)c1C#N [Example 355, N-(4-(((3,5-Dicyano-4-ethyl-6-(4-methyl-1,4-diazepan-1-yl)pyridin-2-yl)thio)methyl)phenyl)-N-methylmethanesulfonamide] | D (Category D: ≥6.5) | < 316 nM |  | 
8 | CCc1c(C#N)c(SC(C(N)=O)c2ccncc2F)nc(N2CCCN(C)CC2)c1C#N (centres unmarked) [Example 248, 2-((3,5-Dicyano-4-ethyl-6-(4-methyl-1,4-diazepan-1-yl)pyridin-2-yl)thio)-2-(3-fluoropyridin-4-yl)acetamide] |  | > 31600 nM | 316 to 1000 nM | 
9 | CCc1c(C#N)c(SCc2ccc(CNS(C)(=O)=O)cc2)nc(N2CCCN(C)CC2)c1C#N [Example 79, N-(4-(((3,5-Dicyano-4-ethyl-6-(4-methyl-1,4-diazepan-1-yl)pyridin-2-yl)thio)methyl)benzyl)methanesulfonamide] | D (Category D: ≥6.5) | 316 to 1000 nM |  | 316 nM
10 | CCc1c(C#N)c(SC(C(N)=O)c2ccccc2)nc(N(C)CC(=O)NC[C@@H](O)CO)c1C#N (stereo partly drawn) [Example 666, 2-((6-((2-amino-2-oxo-1-phenylethyl)thio)-3,5-dicyano-4-ethylpyridin-2-yl)(methyl)amino)-N-((R)-2,3-dihydroxypropyl)acetamide] | D (Category D: ≥6.5) | 1000 to 31600 nM |  | 
11 | CCc1c(C#N)c(SC(C(N)=O)c2ccc(F)c(F)c2)nc(N2CCC(N(C)C)CC2)c1C#N (centres unmarked) [Example 216, 2-((3,5-Dicyano-6-(4-(dimethylamino)piperidin-1-yl)-4-ethylpyridin-2-yl)thio)-2-(3,4-difluorophenyl)acetamide] |  | < 316 nM | 1000 to 31600 nM | ≥ 1000 nM and 1580 nM
12 | CCc1c(C#N)c(S[C@@H](C(N)=O)c2ccccc2)nc(N(C)CCCO)c1C#N [Example 695, (R)-2-((3,5-dicyano-4-ethyl-6-((3-hydroxypropyl)(methyl)amino)pyridin-2-yl)thio)-2-phenylacetamide] | D (Category D: ≥6.5) | 1000 to 31600 nM |  | 
13 | CCc1c(C#N)c(SC(C(N)=O)c2ccccc2)nc(N2CC[C@@H](N)[C@H](F)C2)c1C#N (relative stereo) [Example 508, rel-2-((6-(trans)-4-amino-3-fluoropiperidin-1-yl)-3,5-dicyano-4-ethylpyridin-2-yl)thio)-2-phenylacetamide] |  | < 316 nM | < 316 nM | 
14 | COc1c(C#N)c(SC(C(N)=O)c2ccccc2)nc(N2CCC(N)CC2)c1C#N (centres unmarked) [Example 693, 2-((6-(4-aminopiperidin-1-yl)-3,5-dicyano-4-methoxypyridin-2-yl)thio)-2-phenylacetamide 2,2,2-trifluoroacetate] | D (Category D: ≥6.5) | < 316 nM |  | 

Further lines, results first:

Row | DNMT1 BioChemical (pIC50 category) (DNMT1; [2]) | EC50 [1] | IC50 (DNMT1; [3]) | IC50 (DNMT1; [4]) | SMILES
15 |  | < 316 nM | 1000 to 31600 nM |  | CCc1c(C#N)c(SC(C(N)=O)c2ccccc2)nc(N2CCC(n3ccnc3)CC2)c1C#N (centres unmarked) [Example 172, 2-((6-(4-(1H-Imidazol-1-yl)piperidin-1-yl)-3,5-dicyano-4-ethylpyridin-2-yl)thio)-2-phenylacetamide]
16 |  | 1000 to 31600 nM | 316 to 1000 nM |  | CCc1c(C#N)c(SC(C(N)=O)c2ccccc2)nc(N2CCC(C(N)=O)C2)c1C#N (centres unmarked) [Example 388, 1-(6-((2-Amino-2-oxo-1-phenylethyl)thio)-3,5-dicyano-4-ethylpyridin-2-yl)pyrrolidine-3-carboxamide]
17 |  | < 316 nM | 316 to 1000 nM |  | CCc1c(C#N)c(SC(C(N)=O)c2ccccc2)nc(N2CCS(=O)(=O)CC2)c1C#N (centres unmarked) [Example 166, 2-((3,5-Dicyano-6-(1,1-dioxidothiomorpholino)-4-ethylpyridin-2-yl)thio)-2-phenylacetamide]
18 |  | 316 to 1000 nM | 1000 to 31600 nM |  | CCc1c(C#N)c(SC(CC)c2ccc(CNC(C)=O)cc2)nc(N2CCC(N(C)C)CC2)c1C#N (centres unmarked) [Example 332, N-(4-(1-(3,5-Dicyano-6-(4-(dimethylamino)piperidin-1-yl)-4-ethylpyridin-2-ylthio)propyl)benzyl)acetamide, Trifluoroacetic Acid Salt]
19 |  | 1000 to 31600 nM | 316 to 1000 nM |  | CCc1c(C#N)c(SC(C(N)=O)c2ccccc2)nc(N2CCN(Cc3cnc[nH]3)CC2)c1C#N (centres unmarked) [Example 188, 2-((6-(4-((1H-lmidazol-5-yl)methyl)piperazin-1-yl)-3,5-dicyano-4-ethylpyridin-2-yl)thio)-2-phenylacetamide]
20 | D (Category D: ≥6.5) | > 31600 nM |  |  | CCc1c(C#N)c(SCc2ccc(CN)cc2)nc(N2CCCN(C)CC2)c1C#N [Example 71, 2-((4-(Aminomethyl)benzyl)thio)-4-ethyl-6-(4-methyl-1,4-diazepan-1-yl)pyridine-3,5-dicarbonitrile, 2Hydrochloride]
21 |  | 1000 to 31600 nM | 1000 to 31600 nM | ≥ 1000 nM | CCc1c(C#N)c(SC(C(N)=O)c2ccccc2)nc(N2CCC(F)(F)CC2)c1C#N (centres unmarked) [Example 133, 2-((3,5-Dicyano-6-(4,4-difluoropiperidin-1-yl)-4-ethylpyridin-2-yl)thio)-2-phenylacetamide]
22 | D (Category D: ≥6.5) | 316 to 1000 nM |  |  | CCOc1c(C#N)c(SC(C(N)=O)c2ccccc2)nc(N2CCCN(CCO)CC2)c1C#N (centres unmarked) [Example 193]
